# Assay results taken from patent US8969312B2, “Low side effect pharmaceutical composition containing antituberculosis drugs” (priority 2011, dated 2015).
# What was measured:
# CYP2E1 [1] = biological target: T1, CYP2E1 (Homo sapiens, UniProt P05181); experiment: Human liver microsomal CYP2E1, chlorzoxazone 6-hydroxylation; details: human; for inhibition at 30 min, 0.167 % (w/v): microsomes, pH 7.4;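 as to all read-outs here: chlorzoxazone added as substrate, 6-hydroxychlorzoxazone formation quantified by LC/MS/MS after 30 min at 37 °C with NADP+ regenerating system, compared against solvent control without test sample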
# T1 sequence (P05181 whole entry): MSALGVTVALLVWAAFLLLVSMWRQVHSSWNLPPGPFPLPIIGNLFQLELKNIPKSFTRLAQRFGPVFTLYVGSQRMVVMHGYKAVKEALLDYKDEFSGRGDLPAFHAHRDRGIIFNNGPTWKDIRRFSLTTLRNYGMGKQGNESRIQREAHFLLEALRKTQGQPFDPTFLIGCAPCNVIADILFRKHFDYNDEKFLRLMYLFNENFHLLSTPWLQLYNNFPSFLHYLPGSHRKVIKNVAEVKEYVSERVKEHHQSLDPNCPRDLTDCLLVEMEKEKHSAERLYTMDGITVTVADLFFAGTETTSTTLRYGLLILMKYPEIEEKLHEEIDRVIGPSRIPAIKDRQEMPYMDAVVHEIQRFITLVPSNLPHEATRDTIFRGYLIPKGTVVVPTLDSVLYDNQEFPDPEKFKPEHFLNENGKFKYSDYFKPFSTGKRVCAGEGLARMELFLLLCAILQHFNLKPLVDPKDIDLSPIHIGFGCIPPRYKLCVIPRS
# Description: (§1) Microsomes prepared from human liver were used to extract cytochrome P450 2E1 (CYP2E1) and CYP2E1 inhibitors were screened from 39 Chinese medicine guiding drugs and 10 excipients. Chlorzoxazone hydroxylation is a reaction catalyzed primarily by CYP2E1 in liver. The extracted human liver microsomal cytochrome P450 2E1 (CYP2E1) was mixed with its substrate, Chlorzoxazone, and test sample was then added Inhibition of CYP2E1 activity was calculated by measuring CYP2E1 standard metabolite, 6-OH-CZX (6-Hydroxy-Chlorzoxazone), and compared with control 6-OH-CZX.
# (§2) After incubation, 16 mM Chlorzoxazone and test samples were added to experimental groups; methanol:sterilized water at 1:1 ratio was added to control groups and DDTC was added to positive control groups,
# (§3) Finally, cofactor 1 mM NADP^+, 10 mM G6P and 2 IU G6PD were added and reaction mixtures were transferred to pre-incubation 37° C. water bath for 1 mM and activity was measured after 30 min of reaction
# (§4) At the end of reaction, 500 μl acetonitrile was added to stop the reaction followed by 5 g/mL 4-hydroxy-tobutamide after 1 mM incubation. The mixture was then centrifuged and 20 L of supernatant was diluted ten times with methanol/sterilized water and 5 L was used for LC/MS/MS analysis. […] The inhibition of CYP2E1 was then calculated by the following equation:
# CYP2E1 [2] = biological target: T1, CYP2E1; experiment: in vitro; details: human liver microsomes, pH 7.4, probe chlorzoxazone (6-hydroxylation)
# Description: as §1, §2, §3, §4
# [3] = biological target: T2, human liver microsomal cytochrome P450 2E1 (CYP2E1) (Homo sapiens, UniProt P05181); experiment: Human liver microsomal CYP2E1, chlorzoxazone 6-hydroxylation;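 also: chlorzoxazone added as substrate, 6-hydroxychlorzoxazone formation quantified by LC/MS/MS after 30 min at 37 °C with NADP+ regenerating system, compared against solvent control without test sample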
# T2 sequence (P05181 whole entry): as above
# Description: as §1, §2, §3, §4
# [4] = biological target: T2, human liver microsomal cytochrome P450 2E1 (CYP2E1)
# Description: as §1, §2, §3, §4
# 129/sv mice [5] = experiment: Mouse study of INH/RIF(/PZA) with i.p. Kaempferol or Quercetin
# Description: Animals were randomized into one of seven groups, each involving five treatments.
# All mice were subjected to GSP tests.
# [6] = biological target: cytochrome P450 2E1 (CYP2E1) (Homo sapiens, UniProt P05181); experiment: CYP2E1 High Throughput Inhibitor Screening Kit, cDNA synthesized microsomal CYP2E1 (MFC to HFC); details: Table 3; minimum tested concentration (mg/L) × volume of human liver and intestine (3L)
# cytochrome P450 2E1 (CYP2E1), sequence (P05181 whole entry): as above
# Description: CYP2E1 High Throughput Inhibitor Screening Kit (BD Bioscience, USA) was used to screen the cytochrome P450 (CYP2E1) inhibitors from 22 Chinese medicine guiding drugs and 10 excipients and microsomal cytochrome P450 (CYP2E1) was synthesized from cDNA (BD Bioscience, USA). The principle of the screening kit is to measure the percentage of CYP2E inhibition, after adding the test sample to substrate MFC (7-Methoxy-4-trifluoromethyl coumarin) and cytochrome P450 (CYP2E1), by measuring the synthesis of standard CYP2E1 metabolite (HFC, 7-Hydroxy-4-trifluoromethyl coumarin) and use control HFC as baseline.
# a. 149 μl NADPH-Cofactor Mix and 1 μl 20 mM DDTC were added to the #1 well in a 96-well plate and mixed thoroughly,
# b. Add 100 μl Cofactor/acetonitrile mix to #2 to #12 wells, and well #1 to #8 are positive control. Well #9 and 10 are control and well #11 and #12 are blank,
# c. […] Preparation of Experimental Groups: a. […] Transfer 50 μl from well #1 and #2 and added to well #3 and mixed thoroughly (triplicate for each sample), 3. Initiation and Termination of the Reaction: a. The 96-well plate was incubated at 37° C. for […], b. 100 μl of Enzyme/Substrate Mix was added to every well and mixed thoroughly except the blank wells, c. The 96-well plate was incubated at 37° C. for 40 min, d. 75 μl Stop Solution was added to every well and mixed thoroughly, e. Immediately add 100 μl Enzyme/Substrate Mix to blank wells and mixed thoroughly, f. Measure with a Fluoroskan Ascent FL (Thermo Electron Corporation, Finland) with excitation at 405 nm and emission at 538 nm, 4. The fluorescence was transverse into CYP 2E1 metabolite standard (HFC) concentration (pmol) and the percentage (%) of CYP 2E1 inhibition was calculated using control as baseline by following equation: […]
# 129/sv mice [7] = experiment: Mouse study of INH/RIF with oral Kaempferol, Mannitol, Saccharin, Sucralose, Dicalcium phosphate or Crospovidone; assay type: in vivo; details: 3 weeks, in words
# Description: Animals were randomized into one of thirteen groups, each involving three treatments. […].
# All mice were subjected to GSP test.
# amidase = experiment: Mouse liver microsomal amidase, isoniazid to isonicotinic acid; assay type: biochemical
# 129/sv mice [8] = experiment: Mouse study of INH/RIF/PZA with oral Mannitol (GSP); assay type: in vivo; details: in words
# Description: Mice were anesthetized with ether at the dose of 50 mg/kg and galactose was retro-orbitally injected and blood samples were collected 60 min after injection through tail vein.
# Animals were randomized into one of three groups, each involving four treatments. […] The second treatment involved injections of 50 mg/kg INH or INH vehicle (VEH1, normal saline). […] The third treatment involved injections of RIF (100 mg/kg) or RIF vehicle (VEH2, saline). […] The fourth treatment involved injections of PZA (250 mg/kg) or PZA vehicle (VEH3, saline).
# [9] = human liver microsomes, pH 7.4, probe Chlorzoxazone
# [10] = daily i.p. 3 weeks, INH/RIF 50/100 mg/kg, Kaempferol 3.78 mg/kg
compound,measurement,setting,value
OCc1ccccc1 [Benzyl alcohol],"inhibition at 30 min, 0.08 % (w/v)",CYP2E1 [1]; [9],6.7 ± 1%
same,"inhibition at 30 min, 0.167 % (w/v)",CYP2E1 [1],-10.3 ± 6.3%
same,"inhibition at 30 min, […]",CYP2E1 [2],7.7 ± 2.6%
CCCCCCCCCCCCCCCCCC(=O)OCC(O)CO (centres unmarked) [Glycerrin monostearate],Inhibition of CYP 2E1,[3]; 0.08% (w/v),7.4 ± 2.9%
same,Inhibition of CYP 2E1,[3]; 0.167% (w/v),6.9 ± 3.8%
same,inhibition,[4],5.8 ± 1.7%
O=c1c(O)c(-c2ccc(O)cc2)oc2cc(O)cc(O)c12 [Kaempferol],liver function tests,"129/sv mice [5]; Kaempferol 1.89 mg/kg with INH/RIF, in words",no obvious reduction
same,GOT,129/sv mice [5]; [10],89±19 U/L
same,GPT,129/sv mice [5]; [10],48±21 U/L
same,Minimum Effective Dose,"[3]; Table 6, minimum tested concentration (mg/L) × volume of human liver and intestine (3 L)",16 mg
same,Minimum Effective Dose,[6],16 mg
same,GSP values over treatment time,129/sv mice [7],remained constant
OC[C@@H](O)[C@@H](O)[C@H](O)[C@H](O)CO [Mannitol],Minimum Effective Dose,[3]; Table 7,10 mg
same,"inhibition at 30 min, 16.5 µM",CYP2E1 [1]; [9],44.8 ± 1.8%
same,"inhibition at 30 min, 33 µM",CYP2E1 [1]; [9],51.2 ± 2.1%
same,"inhibition at 30 min, 66 µM",CYP2E1 [1]; [9],54.5 ± 4.2%
same,Amidase inhibition,amidase; 0.0005%,58.3 ± 4.3%
same,Amidase inhibition,amidase; 0.005%,52.8 ± 7.6%
same,Amidase inhibition,amidase; 0.05%,1.9 ± 6.0%
same,GSP values over treatment time,129/sv mice [8],reamined constant
same,GSP values over treatment time,129/sv mice [7],remained constant
OC[C@@H](O)[C@@H](O)[C@H](O)[C@@H](O)CO [Sorbitol],"inhibition at 30 min, 0.08 % (w/v)",CYP2E1 [1]; [9],5.6 ± 0.5%
same,"inhibition at 30 min, 0.167 % (w/v)",CYP2E1 [1],16.1 ± 0.7%
same,"inhibition at 30 min, […]",CYP2E1 [2],4.4 ± 1.7%
Sodium starch glycolate,inhibition,[4],34.7 ± 1.3%
Tween 80,inhibition,[4],23.1 ± 3%
